Reference: patent US7868026B2, “Therapeutic compounds” (Pfizer Inc., priority 2005, dated 2011)
Read-outs that look alike come from different tables or passages of the source.

Experiments:
Assay type in all cases: biochemical
[1] = target: T1, CYP3A4 (Homo sapiens, UniProt P08684); experiment: Determination of compound Kiapp against recombinant CYP3A4 enzyme (BFC fluorescent substrate)
Method in brief: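 Kiapp derived from initial velocities over the first 5 min of BFC (5 uM) oxidation, using Morrison's tight-binding equation for non-partial and Szedlacsek's for partial inhibitors. Inhibitor first pre-incubated ≥30 min with CYP3A4 (5.5 or 8 nM, ±b5) in pH 7.0 phosphate/TCEP/2% DMF at room temperature; 200 uM NADPH initiated.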

[2] = target: T1, CYP3A4; experiment: Determination of IC50 against CYP3A4 by measurement of inhibition of testosterone metabolism (human liver microsomes, 6-β-OH-testosterone by LC-MS/MS); parameters: 0.1 mg/mL human liver microsomes; conditions: read-out: IC50 (Testo.)
Method in brief: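 6-β-OH-testosterone formation was read by LC-MS/MS (MRM, internal standard, standard curve) after eight minutes. Reaction contained testosterone 25 μM, NADPH 1 mM and microsomal protein 0.1 mg/mL in pH 7.4 potassium phosphate (100 mM).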

[3] = target: T1, CYP3A4; experiment: Determination of IC50 against CYP3A4 by measurement of inhibition of midazolam metabolism (human liver microsomes, 1-hydroxymidazolam by LC-MS/MS); parameters: 0.1 mg/mL human liver microsomes; conditions: 2 μM midazolam, 0.1 mg/mL human liver microsomes
Method in brief: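 Human liver microsomes (0.1 mg/mL) incubated 8 min with 2 μM midazolam and 1 mM NADPH in 100 mM potassium phosphate, pH 7.4. 1-Hydroxymidazolam quantified by LC-MS/MS (MRM) as peak area ratio to internal standard against a metabolite standard curve.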

[4] = Baculo. enzyme preparation, read-out: Kiapp (BFC, Baculo.)
[5] = Super. enzyme preparation, read-out: Kiapp (BFC, Super.)

T1 sequence (P08684 whole entry): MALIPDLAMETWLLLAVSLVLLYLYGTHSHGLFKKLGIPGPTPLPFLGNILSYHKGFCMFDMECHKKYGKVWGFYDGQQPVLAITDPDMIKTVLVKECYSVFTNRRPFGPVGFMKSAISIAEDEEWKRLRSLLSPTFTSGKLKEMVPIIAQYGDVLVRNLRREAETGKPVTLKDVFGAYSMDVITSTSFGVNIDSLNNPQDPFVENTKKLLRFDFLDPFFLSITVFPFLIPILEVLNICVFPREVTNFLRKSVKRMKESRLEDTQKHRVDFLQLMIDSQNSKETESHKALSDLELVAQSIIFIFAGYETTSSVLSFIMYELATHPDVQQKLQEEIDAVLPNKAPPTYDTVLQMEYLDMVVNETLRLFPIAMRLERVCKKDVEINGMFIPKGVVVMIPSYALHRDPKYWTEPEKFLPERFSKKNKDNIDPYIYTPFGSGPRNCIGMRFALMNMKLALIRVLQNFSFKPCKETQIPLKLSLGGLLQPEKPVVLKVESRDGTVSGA

| Ki [1, 4] [nM] | Ki [1, 5] [nM] | IC50 [2] [nM] | IC50 [3] [nM] | SMILES |
| --- | --- | --- | --- | --- |
| 7.6 | 1.1 | 18 | 6 | COc1cncc(NS(=O)(=O)c2ccccc2C(=O)NCc2ccc(F)c(F)c2)c1 [Example 368, N-(3,4-difluorobenzyl)-2-{[(5-methoxypyridin-3-yl)amino]sulfonyl}benzamide] |
| 350 | 53.2 | 181 | 98 | COc1cncc(NS(=O)(=O)c2ccccc2C(=O)N2CCCC2)c1 [Example 369, N-(5-methoxypyridin-3-yl)-2-(pyrrolidin-1-ylcarbonyl)benzenesulfonamide] |
| 52.9 | 19 | 8 | 12 | COc1cncc(NS(=O)(=O)c2ccccc2C(=O)N(C)CCc2ccccc2)c1 [Example 370, 2-{[(5-methoxypyridin-3-yl)amino]sulfonyl}-N-methyl-N-(2-phenylethyl)benzamide] |
| 248 | 58.8 | 10 | 5 | CC(C)CCN(C)C(=O)c1ccccc1S(=O)(=O)Nc1cccnc1 [Example 371, N-methyl-N-(3-methylbutyl)-2-[(pyridin-3-ylamino)sulfonyl]benzamide] |
| 79 | 18 | 23 | 15 | COc1cncc(NS(=O)(=O)c2ccccc2C(=O)N(C)Cc2ccccc2)c1 [Example 372, N-benzyl-2-{[(5-methoxypyridin-3-yl)amino]sulfonyl}-N-methylbenzamide] |
| 221 | 45 | 49 | 37 | COc1ccc(CNC(=O)c2ccccc2S(=O)(=O)Nc2cncc(OC)c2)cc1 [Example 373, N-(4-methoxybenzyl)-2-{[(5-methoxypyridin-3-yl)amino]sulfonyl}benzamide] |
| 483 | 74.5 | 79 | 29 | COc1cncc(NS(=O)(=O)c2ccccc2C(=O)NC(C)(C)C)c1 [Example 374, N-(tert-butyl)-2-{[(5-methoxypyridin-3-yl)amino]sulfonyl}benzamide] |
| 142 | 31.6 | 42 | 22 | COc1cncc(NS(=O)(=O)c2ccccc2C(=O)NCC2CCCC2)c1 [Example 375, N-(cyclopentylmethyl)-2-{[(5-methoxypyridin-3-yl)amino]sulfonyl}benzamide] |
| 117 | 73 | 43 | 27 | CCCCN(C)C(=O)c1ccccc1S(=O)(=O)Nc1cccnc1 [Example 376, N-butyl-N-methyl-2-[(pyridin-3-ylamino)sulfonyl]benzamide] |
| 76.3 | 17.6 | 33 | 21 | CCCCCNC(=O)c1ccccc1S(=O)(=O)Nc1cncc(OC)c1 [Example 377, 2-{[(5-methoxypyridin-3-yl)amino]sulfonyl}-N-pentylbenzamide] |
| 78 | 18.7 | 14 | 13 | COc1cncc(NS(=O)(=O)c2ccccc2C(=O)NCc2ccccc2F)c1 [Example 378, N-(2-fluorobenzyl)-2-{[(5-methoxypyridin-3-yl)amino]sulfonyl}benzamide] |
| 120 | 24.6 | 7 | 8 | COc1cncc(NS(=O)(=O)c2ccccc2C(=O)NCCC(C)C)c1 [Example 379, 2-{[(5-methoxypyridin-3-yl)amino]sulfonyl}-N-(3-methylbutyl)benzamide] |
| 215 | 60.7 | 29 | 21 | COc1cncc(NS(=O)(=O)c2ccccc2C(=O)NCC(C)(C)C)c1 [Example 380, N-(2,2-dimethylpropyl)-2-{[(5-methoxypyridin-3-yl)amino]sulfonyl}benzamide] |
| 52 | 2.79 | 64 | 30 | COc1cncc(NS(=O)(=O)c2ccccc2C(=O)NC(C)(C)c2ccccc2)c1 [Example 381, 2-{[(5-methoxypyridin-3-yl)amino]sulfonyl}-N-(1-methyl-1-phenylethyl)benzamide] |
| 505 | 20.1 | 263 | 68 | COC[C@H](C)NC(=O)c1ccccc1S(=O)(=O)Nc1cncc(OC)c1 [Example 382, N-[(1S)-2-methoxy-1-methylethyl]-2-{[(5-methoxypyridin-3-yl)amino]sulfonyl}benzamide] |
| 912 | 31 | 348 | 67 | COc1cncc(NS(=O)(=O)c2ccccc2C(=O)NCCc2ccncc2)c1 [Example 383, 2-{[(5-methoxypyridin-3-yl)amino]sulfonyl}-N-(2-pyridin-4-ylethyl)benzamide] |
| 560 | 19.2 | 178 | 43 | COc1cncc(NS(=O)(=O)c2ccccc2C(=O)NCCc2cccnc2)c1 [Example 384, 2-{[(5-methoxypyridin-3-yl)amino]sulfonyl}-N-(2-pyridin-3-ylethyl)benzamide] |
| > 1000 | 216 | > 750 | > 750 | COc1cncc(NS(=O)(=O)c2ccccc2C(=O)NCCN2CCCCC2)c1 [Example 385, 2-{[(5-methoxypyridin-3-yl)amino]sulfonyl}N-(2-piperidin-1-ylethyl)benzamide] |
| > 1000 | 174 | > 750 | > 750 | COc1cncc(NS(=O)(=O)c2ccccc2C(=O)NCCN2CCCC2)c1 [Example 386, 2-{[(5-methoxypyridin-3-yl)amino]sulfonyl}-N-(2-pyrrolidin-1-ylethyl)benzamide] |
| > 1000 | 224 | > 750 | > 750 | COc1cncc(NS(=O)(=O)c2ccccc2C(=O)NCCC2CCCN2C)c1 (stereo not shown) [Example 387, 2-{[(5-methoxypyridin-3-yl)amino]sulfonyl}N[2-(1-methylpyrrolidin-2-yl)ethyl]benzamide] |
| 16 | < 1 | 3 | 9 | COc1cncc(NS(=O)(=O)c2ccccc2C(=O)NCCc2ccccc2C)c1 [Example 388, 2-{[(5-methoxypyridin-3-yl)amino]sulfonyl}-N-[2-(2-methylphenyl)ethyl]benzamide] |
| 241 | 2.81 | 57 | 24 | COc1cncc(NS(=O)(=O)c2ccccc2C(=O)N2CCC(C)CC2)c1 [Example 389, N-(5-methoxypyridin-3-yl)-2-[(4-methylpiperidin-1-yl)carbonyl]benzenesulfonamide] |
| 84.9 | 1.78 | 70 | 18 | CCCN(CC1CC1)C(=O)c1ccccc1S(=O)(=O)Nc1cncc(OC)c1 [Example 390, N-(cyclopropylmethyl)-2-{[(5-methoxypyridin-3-yl)amino]sulfonyl}-N-propylbenzamide] |
| 317 | 6.26 | 63 | 27 | COc1cncc(NS(=O)(=O)c2ccccc2C(=O)N2CCCC(C)(C)C2)c1 [Example 391, 2-[(3,3-dimethylpiperidin-1-yl)carbonyl]-N-(5-methoxypyridin-3-yl)benzenesulfonamide] |
| > 1000 | 320 | 9 | 65 | O=C(c1ccccc1S(=O)(=O)Nc1cncc(Br)c1)N1CCCCC1 [Example 392, N-(5-bromopyridin-3-yl)-2-(piperidin-1-ylcarbonyl)benzenesulfonamide] |
